# Tested on: participants with Raynaud's Phenomenon secondary mostly to systemic sclerosis (SSc-RP)
# Assay: Frequency of weekly symptomatic RP attacks (patient diary), Phase 2a study Part A
# Assay type: in vivo, human
# Procedure: A randomized, placebo-controlled phase 2a study was performed and is in progress to assess the safety and efficacy of cilnidipine (10 mg and 20 mg) alone and in combination with 5 mg tadalafil, in participants with diagnosis of scleroderma and/or secondary Raynaud's disease.
# The relevant metrics measured by this tool daily are: • Study medication • SSc-RP symptoms (Reporting an attack including duration of attack) • Severity of the attack considering all symptoms of the attack e.g., tingling, numbness, pain, color changes (VAS 0-10 cm scale) • Participant's location at the time of the attack (inside home/outside home) • Selecting symptoms experienced during the attack (tingling, numbness, pain, color changes, other) • Pain rating during the attack (11-point Likert scale) • The RCS based on how much difficulty participants had with Raynaud's today, how many attacks the participant had, and how long they lasted. Participants will also be asked to consider how much pain, numbness, or other symptoms the Raynaud's caused in fingers (including painful sores), and how much the Raynaud's alone affected the use of hands today (VAS 0-10 cm scale).
# Percent change from baseline evaluation for frequency of weekly RP attacks were or will be used as the primary efficacy variable. The sponsor-developed participant-informed diary will be used to record data. Frequency of weekly RP attacks is defined as the total number of RP attacks divided by the number of days with available diary data within the last 7 days of each dosing period then multiplied by 7. Total number of RP attacks during the last 7 days of screening period divided by the number of days with available data then multiplied by 7 will be used as baseline for the analysis of all periods. The variable will be calculated as follows:
# Percentage change={(weekly RP attacks for the last 7 days of each dosing period−Baseline weekly RP attacks)/Baseline weekly RP attacks}*100%.
# Absolute change=weekly RP attacks for the last 7 days of each dosing period−Baseline weekly RP attacks
# Percent change from baseline evaluation for frequency of weekly RP attacks was and will be the primary efficacy endpoint. Frequency of weekly RP attacks is defined as the total number of RP attacks divided by the number of days with available diary data within the last 7 days of each dosing period then multiplied by 7. Total number of RP attacks during the last 7 days of screening period divided by the number of days with available data then multiplied by 7 will be used as baseline for the analysis of all periods.
# The following data was actually obtained in accordance with the protocol and plan delineated in Examples 1 and 2. The accompanying data involved 11 patients out of the planned 76 patient study. The study was done in patients with scleroderma (systemic sclerosis) who had relatively frequent Raynaud symptoms as they needed to average at least one attack per day during a screening period of up to two weeks. In this first phase of this double-blind placebo-controlled, prospective randomized study, patients were treated in parallel and after meeting study criteria were randomized to receive either placebo, cilnidipine 10 mg daily, cilnidipine 20 mg daily, tadalafil 5 mg daily, cilnidipine 10 mg plus 5 mg of tadalafil, or cilnidipine 20 mg plus 5 mg of tadalafil.
# [1] = Tadalafil 5 mg (N = 2), ITT Part A
# [2] = Tadalafil 5 mg, n 1, Excluding Outliers, ITT Part A
# [3] = Tadalafil 5 mg, n 2, by Baseline RCS, 2nd block (RCS >5.0), ITT Part A
# [4] = excluding outliers, by baseline RCS, second subgroup, cilnidipine 10 mg, tadalafil 5 mg daily
compound,measurement,setting,value
"CN1CC(=O)N2[C@H](c3ccc4c(c3)OCO4)c3[nH]c4ccccc4c3C[C@@H]2C1=O [Tadalafil, tadalafil]","Weekly Symptomatic RP Attacks Change from Baseline, Mean",[1],4.50
same,"Weekly Symptomatic RP Attacks Change from Baseline, Median",[1],4.50
same,"Weekly Symptomatic RP Attacks Percent Change from Baseline, Mean",[1],62.50%
same,"Weekly Symptomatic RP Attacks Percent Change from Baseline, Median",[1],62.50%
same,"Weekly Symptomatic RP Attacks, Mean",[1],12.50
same,"Weekly Symptomatic RP Attacks, Median",[1],12.50
same,"Weekly Symptomatic RP Attacks Change from Baseline, Mean (SD)",[2],6.00
same,"Weekly Symptomatic RP Attacks Change from Baseline, Median",[2],6.00
same,"Weekly Symptomatic RP Attacks Percent Change from Baseline, Mean (SD)",[2],50.00%
same,"Weekly Symptomatic RP Attacks Percent Change from Baseline, Median",[2],50.00%
same,"Weekly Symptomatic RP Attacks, Mean (SD)",[2],18.00
same,"Weekly Symptomatic RP Attacks, Median",[2],18.00
same,"Weekly Symptomatic RP Attacks Change from Baseline, Mean (SD)",[3],4.50 (2.121)
same,"Weekly Symptomatic RP Attacks Change from Baseline, Median",[3],4.50
same,"Weekly Symptomatic RP Attacks Percent Change from Baseline, Mean (SD)",[3],62.50 (17.678) %
same,"Weekly Symptomatic RP Attacks Percent Change from Baseline, Median",[3],62.50%
same,"Weekly Symptomatic RP Attacks, Mean (SD)",[3],12.50 (7.778)
same,"Weekly Symptomatic RP Attacks, Median",[3],12.50
same,"Weekly Symptomatic RP Attacks Change from Baseline, Max",[4],"6.0, 6.0"
same,"Weekly Symptomatic RP Attacks Change from Baseline, Mean (SD)",[4],6.00
same,"Weekly Symptomatic RP Attacks Change from Baseline, Median",[4],6.00
same,"Weekly Symptomatic RP Attacks Change from Baseline, Min",[4],"6.0, 6.0"
same,"Weekly Symptomatic RP Attacks Change from Baseline, Q1",[4],"6.00, 6.00"
same,"Weekly Symptomatic RP Attacks Change from Baseline, Q3",[4],"6.00, 6.00"
same,"Weekly Symptomatic RP Attacks Percent Change from Baseline, Max",[4],"50.0, 50.0%"
same,"Weekly Symptomatic RP Attacks Percent Change from Baseline, Mean (SD)",[4],50.00%
same,"Weekly Symptomatic RP Attacks Percent Change from Baseline, Median",[4],50.00%
same,"Weekly Symptomatic RP Attacks Percent Change from Baseline, Min",[4],"50.0, 50.0%"
same,"Weekly Symptomatic RP Attacks Percent Change from Baseline, Q1",[4],"50.00, 50.00%"
same,"Weekly Symptomatic RP Attacks Percent Change from Baseline, Q3",[4],"50.00, 50.00%"
same,"Weekly Symptomatic RP Attacks, Max",[4],"18.0, 18.0"
same,"Weekly Symptomatic RP Attacks, Mean (SD)",[4],18.00
same,"Weekly Symptomatic RP Attacks, Median",[4],18.00
same,"Weekly Symptomatic RP Attacks, Min",[4],"18.0, 18.0"
same,"Weekly Symptomatic RP Attacks, Q1",[4],"18.00, 18.00"
same,"Weekly Symptomatic RP Attacks, Q3",[4],"18.00, 18.00"
